In patent US4997829A, “Penem compounds, and use thereof” (Suntory Limited, priority 1985, dated 1991) one finds MIC data, which are given here for 5 compounds.

Holding throughout (experiment): Minimum inhibitory concentration (MIC), agar plate dilution method
Common to all, as to assay type: cell-based

The subject of one assay is Al. fecalis IFO13111. To be noted: 10^6 CFU inoculated, 37° C., 18 hours. As for the experimental part: (§1) With regard to the novel compounds obtained according to this invention and the compounds of Reference Examples, their minimum inhibitory concentrations (MIC) were determined by the agar plate dilution method in accordance with the MIC measuring standard method of The Chemotherapeutic Society of Japan, whereby 10^6 colony forming units were inoculated and the minimal concentration to inhibit the microbial growth after inclubation at 37° C. for 18 hours were determined, as shown as μg/ml in Table.

The subject of a further assay is B. fragilis GM7000. To be noted: Bacteroides fragilis, GM7000; 10^6 CFU inoculated, 37° C., 18 hours. The procedure: as §1
The test system of another assay is B. fragilis V-280-1. Particulars: Bacteroides fragilis, V2801; 10^6 CFU inoculated, 37° C., 18 hours. The procedure:
as §1

The subject of another assay is E. coli NIHI JC-2. To be noted: Escherichia coli, NIHIJC2; 10^6 CFU inoculated, 37° C., 18 hours. As for the experimental part: as §1
In a further assay the test system is E. coli W3630/Rms212. To be noted: Escherichia coli, W3630/RMS212, 18 h, read-out: minimum inhibitory concentration (MIC). The procedure:
as §1

Another assay has as its system E. coli W3630/Rms213. Particulars: Escherichia coli, W3630/RMS213, 18 h, read-out: minimum inhibitory concentration (MIC). The procedure:
as §1

The next assay concerns Ent. cloacae 963. To be noted: Enterobacter cloacae, 963; 10^6 CFU inoculated, 37° C., 18 hours. As for the experimental part:
as §1

Another assay relates to F. varium ATCC8501. Particulars: Fusobacterium varium, ATCC8501; 10^6 CFU inoculated, 37° C., 18 hours. As for the experimental part:
as §1

Another assay relates to K. pneumoniae PC1602. Particulars: Klebsiella pneumoniae, PC1602; 10^6 CFU inoculated, 37° C., 18 hours. As for the experimental part:
as §1

The subject of the next assay is M. luteus ATCC9341. To be noted: Micrococcus luteus, ATCC9341; 10^6 CFU inoculated, 37° C., 18 hours. The procedure:
as §1

The test system of a further assay is Pr. morganii IFO3848. Particulars: Morganella morganii, IFO3848; 10^6 CFU inoculated, 37° C., 18 hours. As for the experimental part: as §1
A further assay relates to Pr. vulgaris GN7919. Particulars: Proteus vulgaris, GN7919; 10^6 CFU inoculated, 37° C., 18 hours. As for the experimental part: as §1
For a further assay, the system named is S. aureus FAD209P JC-1. Particulars: Staphylococcus aureus, FAD209PJC1; 10^6 CFU inoculated, 37° C., 18 hours. The procedure:
as §1

Another assay relates to Ser. marcescens IMA 1136. To be noted: Serratia marcescens, IMA1136; 10^6 CFU inoculated, 37° C., 18 hours. As for the experimental part: as §1

Take `C[C@@H](O)[C@H]1C(=O)N2C(C(=O)O)=C(C3COCCO3)S[C@H]12` (mixture of isomers) [SUN 4742, Potassium (1'R, 2"s, 5R, 6S and 1'R, 2"R, 5R, 6S)-6-(1'-hydroxyethyl)-2-(2"-paradioxanyl)penem-3-carboxylate]: the MIC against Al. fecalis IFO13111 turned out to be 0.78 µg/mL; against B. fragilis GM7000, 0.05 µg/mL; against B. fragilis V-280-1, 0.05 µg/mL; in the assay on E. coli NIHI JC-2, 1.56 µg/mL; in the assay with E. coli W3630/Rms212 it was 3.13 µg/mL; in the assay on E. coli W3630/Rms213 it was 0.78 µg/mL. The MIC against Ent. cloacae 963 was 6.25 µg/mL; in the assay on F. varium ATCC8501, 0.78 µg/mL; against K. pneumoniae PC1602, 0.1 µg/mL; in the assay on M. luteus ATCC9341, 0.1 µg/mL; in the assay on Pr. morganii IFO3848, 6.25 µg/mL; against Pr. vulgaris GN7919 it was 0.78 µg/mL. In addition, the MIC against S. aureus FAD209P JC-1 was 0.05 µg/mL; against Ser. marcescens IMA 1136, 6.25 µg/mL.
Regarding `C[C@@H](O)[C@H]1C(=O)N2C(C(=O)O)=C(Cc3ccsc3)S[C@H]12` (relative stereo) [SUN 3514, Potassium (1'R, 5R, 6S and 1'S, 5S, 6R)-6-(1'-hydroxyethyl)-2-(3"-thiophenemethyl)penem-3-carboxylate, reference compound], the MIC with Al. fecalis IFO13111 is 0.39 µg/mL; against B. fragilis GM7000, 0.39 µg/mL; in the assay on B. fragilis V-280-1, 0.39 µg/mL; in the assay on E. coli NIHI JC-2, over 50 µg/mL; in the assay on E. coli W3630/Rms212 it was 50 µg/mL; with E. coli W3630/Rms213 it was 25 µg/mL. Further, the MIC is over 50 µg/mL with Ent. cloacae 963; 0.39 µg/mL against F. varium ATCC8501; 0.78 µg/mL against K. pneumoniae PC1602; 0.2 µg/mL against M. luteus ATCC9341; 8.13 µg/mL with Pr. morganii IFO3848; 6.25 µg/mL against Pr. vulgaris GN7919. The MIC with S. aureus FAD209P JC-1 was 0.05 µg/mL; against Ser. marcescens IMA 1136 it was 50 µg/mL.
As to `C[C@@H](O)[C@H]1C(=O)N2C(C(=O)O)=C([C@@H]3CCCO3)S[C@H]12` (relative stereo) [SUN 4118, potassium (1'R, 2"S, 5R, 6S and 1'S, 2"R, 5S, 6R)-6-(1'-hydroxyethyl)-2-(2"-tetrahydrofuranyl)penem-3-carboxylate], the MIC against Al. fecalis IFO13111 was 1.56 µg/mL; in the assay with B. fragilis V-280-1, 0.2 µg/mL; in the assay on E. coli W3630/Rms212 it was 12.5 µg/mL; in the assay with E. coli W3630/Rms213 it was 12.5 µg/mL; in the assay with Ent. cloacae 963, 25 µg/mL; against F. varium ATCC8501, 1.56 µg/mL. The MIC was 0.05 µg/mL in the assay with M. luteus ATCC9341, 1.56 µg/mL with Pr. vulgaris GN7919, 0.1 µg/mL against S. aureus FAD209P JC-1 and 25 µg/mL in the assay with Ser. marcescens IMA 1136.
For the compound `C[C@@H](O)[C@H]1C(=O)N2C(C(=O)O)=C([C@H]3CCC(=O)O3)S[C@H]12` [SUN 4374, Potassium (1'R, 2"R, 5R, 6S)-6-(1'-hydroxyethyl)-2[2"-(5"-oxo)oxolanyl]penem-3-carboxylate], the MIC came out at 1.56 µg/mL against Al. fecalis IFO13111; 1.56 µg/mL in the assay with E. coli NIHI JC-2; 1.56 µg/mL in the assay on E. coli W3630/Rms212; 0.78 µg/mL in the assay on E. coli W3630/Rms213; 3.13 µg/mL against Ent. cloacae 963; 0.39 µg/mL with K. pneumoniae PC1602. Besides, the MIC against M. luteus ATCC9341 was determined as 0.1 µg/mL; against Pr. morganii IFO3848, 3.13 µg/mL; with Pr. vulgaris GN7919, 0.78 µg/mL; with S. aureus FAD209P JC-1 it was 0.1 µg/mL; in the assay on Ser. marcescens IMA 1136, 3.13 µg/mL.
Consider `C[C@@H](O)[C@H]1C(=O)N2C(C(=O)O)=C([C@@H]3CCCO3)S[C@H]12` [SUN 4434, Potassium (1'R, 2"S, 5R, 6S)-6-(1'-hydroxyethyl)-2-(2"-tetrahydofuranyl)penem-3-carboxylate], for which the MIC against Al. fecalis IFO13111 came to 3.13 µg/mL; against B. fragilis V-280-1, 0.2 µg/mL; in the assay on E. coli W3630/Rms212 it was 12.5 µg/mL; in the assay with E. coli W3630/Rms213, 6.25 µg/mL; in the assay on Ent. cloacae 963, 12.5 µg/mL; in the assay with F. varium ATCC8501, 1.56 µg/mL. Moreover, the MIC in the assay with M. luteus ATCC9341 is under 0.025 µg/mL; in the assay on Pr. vulgaris GN7919, 0.78 µg/mL; with S. aureus FAD209P JC-1 it was 0.05 µg/mL; against Ser. marcescens IMA 1136, 25 µg/mL.
